In US4056674A, “Derivatives of 3-deazaguanine” (priority 1975, dated 1977):
Converted amounts (≈) assume the structure as drawn. “And” between values parts separate entries of the source, which are not always exact repeats. Equal values may be shown once.

Experiments:
[1] = tested on: adenovirus, type 3; test: In vitro antiviral, inhibition of virus-induced cytopathogenic effect (CPE), AV/3; type: cell-based; conditions: KB or RK-13 cells, VR >0.5 significant, <0.5 slight antiviral activity
[2] = tested on: herpes simplex virus, type 1; test: In vitro antiviral, inhibition of virus-induced CPE, HSV/1; type: cell-based; conditions: KB or RK-13 cells, VR >0.5 significant, <0.5 slight antiviral activity
[3] = tested on: vaccinia virus; type: cell-based; conditions: VV; KB or RK-13 cells; VR >0.5 significant, <0.5 slight antiviral activity
[4] = tested on: human cytomegalovirus; test: In vitro antiviral, inhibition of virus-induced CPE, HCMV; type: cell-based; conditions: KB or RK-13 cells, VR >0.5 significant, <0.5 slight antiviral activity
[5] = tested on: murine cytomegalovirus; test: In vitro antiviral, inhibition of virus-induced CPE, MCMV; type: cell-based; conditions: KB or RK-13 cells, VR >0.5 significant, <0.5 slight antiviral activity
Protocol: (§1) In this example, compounds 3, 4, 13, 16, 20, 22, 29 and 30 were tested to determine their in vitro antiviral efficacy, using the inhibition virus-induced cytopathogenic effect (CPE) method of Sidwell, et al. (Applied Microbiology 22:797-801, 1971). Briefly, the CPE procedure includes the suspension of the antiviral agent in a cell culture medium consisting of vitamins, amino acids, serum, buffer, penicillin, streptomycin and indicator dye in water. The virus suspended in the cell culture medium was added to an established monolayer of KB cells or RK-13 cells, and an equal volume of the antiviral agent was then added within 15 minutes. The infected treated cells were graded following microscopic examination. Controls for each experiment include cell controls cells and cell culture medium only), virus controls (cell and virus cell culture medium) and toxicity controls (cells and chemical and cell culture medium).
(§2) The virus rating (VR) system of Sidwell et al., described in Applied Microbiology, supra, was used to evaluate the degree of significance of CPE inhibition.

[6] = tested on: pseudorabies virus; type: cell-based; conditions: PRV; KB or RK-13 cells; VR >0.5 significant, <0.5 slight antiviral activity
[7] = tested on: myxoma virus; test: In vitro antiviral, inhibition of virus-induced CPE, MV; type: cell-based; conditions: KB or RK-13 cells, VR >0.5 significant, <0.5 slight antiviral activity
Protocol: as §1, §2

[8] = tested on: Parainfluenza virus, type 3; test: In vitro antiviral, inhibition of virus-induced CPE, PIV/3; type: cell-based; conditions: PIV/3; KB or RK-13 cells; VR >0.5 significant, <0.5 slight antiviral activity
[9] = tested on: parainfluenza virus, type 1; test: In vitro antiviral, inhibition of virus-induced CPE, PIV/1; type: cell-based; conditions: PIV/1; KB or RK-13 cells; VR >0.5 significant, <0.5 slight antiviral activity
[10] = tested on: rhinovirus, type 1A; test: In vitro antiviral, inhibition of virus-induced CPE, RV/1A; type: cell-based; conditions: KB or RK-13 cells, VR >0.5 significant, <0.5 slight antiviral activity
[11] = tested on: RV/2: rhinovirus, type 1; test: In vitro antiviral, inhibition of virus-induced CPE, RV/2; type: cell-based; conditions: KB or RK-13 cells, VR >0.5 significant, <0.5 slight antiviral activity
[12] = tested on: rhinovirus, type 8; test: In vitro antiviral, inhibition of virus-induced CPE, RV/8; type: cell-based; conditions: KB or RK-13 cells, VR >0.5 significant, <0.5 slight antiviral activity
[13] = tested on: rhinovirus, type 13; test: In vitro antiviral, inhibition of virus-induced CPE, RV/13; type: cell-based; conditions: KB or RK-13 cells, VR >0.5 significant, <0.5 slight antiviral activity
[14] = tested on: rhinovirus, type 30; test: In vitro antiviral, inhibition of virus-induced CPE, RV/30; type: cell-based; conditions: KB or RK-13 cells, VR >0.5 significant, <0.5 slight antiviral activity
Protocol: as §1, §2

[15] = tested on: rhinovirus, type 56; test: In vitro antiviral, inhibition of virus-induced CPE, RV/56; type: cell-based; conditions: KB or RK-13 cells, VR >0.5 significant, <0.5 slight antiviral activity
[16] = tested on: influenza virus, type Ao; test: In vitro antiviral, inhibition of virus-induced CPE, IV/Ao; type: cell-based; conditions: KB or RK-13 cells, VR >0.5 significant, <0.5 slight antiviral activity
[17] = tested on: vesicular stomatitis virus; type: cell-based; conditions: VSV; KB or RK-13 cells; VR >0.5 significant, <0.5 slight antiviral activity
[18] = tested on: Escherichis; test: In vitro antibacterial, broth dilution assay, Escherichia; type: cell-based; conditions: 24 h, read-out: Average MIC
Protocol: (§3) In this example compounds 7 and 30 were tested to determine their in vitro antibacterial activity. Clinical isolates of pathogens were used for this example. In vitro sensitivity of these organisms were quantitatively determined by broth dilution assay. Serial dilutions were prepared in chemically defined medium in a range from 100 to 0.01 μg/ml. The minimal Inhibitory Concentration (MIC) was recorded as the highest dilution of compound which prevented visible growth of the pathogen following 24 hr incubation at 35°.

[19] = tested on: Proteus; test: In vitro antibacterial, broth dilution assay, Proteus; type: cell-based; conditions: 24 h, read-out: Average MIC
Protocol: as §3

[20] = tested on: Hela cells; test: Cytotoxicity to Hela cells in tissue culture; type: cell-based
[21] = tested on: L1210 cells; test: Cytotoxicity to L1210 cells in tissue culture; type: cell-based
Protocol: (§4) In this example compound 30 was tested for antitumor activity in mice. […] A 10^-5 M concentration of compound 30 caused 50% inhibition of the incorporation of ^3 H-thymidine and ^3 H-uridine into the acidinsoluble fraction of L1210 cells in tissue culture. […] Ara C (cytosine arabinoside) was included as a standard.

[22] = tested on: L1210 cells; test: Inhibition of incorporation of 3H-thymidine into the acid-insoluble fraction of L1210 cells; type: cell-based; conditions: Mus musculus; 10^-5 M; L1210 cells in tissue culture
Protocol: as §4

[23] = tested on: L1210 cells; test: Inhibition of incorporation of 3H-uridine into the acid-insoluble fraction of L1210 cells; type: cell-based; conditions: Mus musculus; 10^-5 M; L1210 cells in tissue culture
Protocol: as §4

[24] = tested on: leukemia L1210; test: Activity against leukemia L1210 in BDF1 female mice; type: in vivo; conditions: qd [1-9]
Protocol: as §4
All animals were inoculated (i.p) with 10^5 leukemic cells. Treatment
was started 24 hours after transplant. Figures in parenthesis denote 21

[25] = LD10; design: species or system mice; conditions: mouse, in vivo
[26] = tested on: adenocarcinoma 755; test: Inhibition of growth of subcutaneous implants of adenocarcinoma 755 in C57 Blk/6 female mice; type: in vivo; conditions: 40 mg/kg i.p. (qd, 1-7)

Nc1cc2nc[nH]c2c(=O)[nH]1 [Compound 30, 6-Amino-imidazo[4,5c]pyridin-4(5H)one]
Virus rating (VR) [1]: 1.1
Virus rating (VR) [2]: 1.3
Virus rating (VR) [3]: 1.2
Virus rating (VR) [4]: 0.3
Virus rating (VR) [5]: 0.6
Virus rating (VR) [6]: 0.3
Virus rating (VR) [7]: 0.9
Virus rating (VR) [8]: 1.0
Virus rating (VR) [9]: 1.0
Virus rating (VR) [10]: 0.3
Virus rating (VR) [11]: 1.3
Virus rating (VR) [12]: 1.3
Virus rating (VR) [13]: 1.2
Virus rating (VR) [14]: 0.3
Virus rating (VR) [15]: 1.1
Virus rating (VR) [16]: 0.5
Virus rating (VR) [17]: 1.3
MIC [18]: 6 µg/mL (≈ 40 µM)
MIC [19]: 25 µg/mL (≈ 167 µM)
cytotoxic to Hela cells [20]: cytotoxic
cytotoxic to L1210 cells [21]: cytotoxic
inhibition at 10 µM [22]: 50%
inhibition at 10 µM [23]: 50%
21 day survivors ([24]; 20 mg/kg i.p.): 0/6
Average Mean Survival ([24]; 20 mg/kg i.p.): 10.83 days
T/C ([24]; 20 mg/kg i.p.): 1.32
increased the life span ([24]; 20 mg/kg i.p.): 32%
ΔWt. ([24]; 20 mg/kg i.p.): +2.0 g
21 day survivors ([24]; 40 mg/kg i.p.): 1/6
Average Mean Survival ([24]; 40 mg/kg i.p.): 12.00 days
T/C ([24]; 40 mg/kg i.p.): 1.43
increased the life span ([24]; 40 mg/kg i.p.): 43%
ΔWt. ([24]; 40 mg/kg i.p.): +0.4 g
21 day survivors ([24]; 80 mg/kg i.p.): 0/6
Average Mean Survival ([24]; 80 mg/kg i.p.): 13.33 days
T/C ([24]; 80 mg/kg i.p.): 1.63
increased the life span ([24]; 80 mg/kg i.p.): 63%
ΔWt. ([24]; 80 mg/kg i.p.): +1.7 g
LD10 [25]: 500 mg/kg
inhibition of the growth of subcutaneous implants [26]: 75% and 93%
